Laboratory results: PubChem BioAssay (NCI)
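GI50 = concentration required for 50% inhibition of growth. TGI: concentration producing complete growth inhibition.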

Legend:
Assay in all cases: DTP human tumour cell line panel, 384-well format
786-0 renal = system: 786-0 renal
A498 renal = system: A498 renal
A549 NSCLC = system: A549 NSCLC
ACHN renal = system: ACHN renal
BT-549 breast = system: BT-549 breast
CAKI-1 renal = system: CAKI-1 renal
CCRF-CEM leukemia = system: CCRF-CEM leukemia
COLO 205 colon = system: COLO 205 colon
DU-145 prostate = system: DU-145 prostate
EKVX NSCLC = system: EKVX NSCLC
HCC-2998 colon = system: HCC-2998 colon
HCT-116 colon = system: HCT-116 colon
HCT-15 colon = system: HCT-15 colon
HL-60(TB) leukemia = system: HL-60(TB) leukemia
HOP-62 NSCLC = system: HOP-62 NSCLC
HOP-92 NSCLC = system: HOP-92 NSCLC
HS 578T breast = system: HS 578T breast
HT29 colon = system: HT29 colon
IGROV1 ovarian = system: IGROV1 ovarian
K-562 leukemia = system: K-562 leukemia
KM12 colon = system: KM12 colon
LOX IMVI melanoma = system: LOX IMVI melanoma
M14 melanoma = system: M14 melanoma
MALME-3M melanoma = system: MALME-3M melanoma
MCF7 breast = system: MCF7 breast
MDA-MB-231 breast = system: MDA-MB-231 breast
MDA-MB-435 melanoma = system: MDA-MB-435 melanoma
MDA-MB-468 breast = system: MDA-MB-468 breast
MOLT-4 leukemia = system: MOLT-4 leukemia
NCI-H226 lung = system: NCI-H226 lung
NCI-H23 lung = system: NCI-H23 lung
NCI-H322M lung = system: NCI-H322M lung
NCI-H460 NSCLC = system: NCI-H460 NSCLC
NCI-H522 lung = system: NCI-H522 lung
NCI/ADR-RES ovarian = system: NCI/ADR-RES ovarian
OVCAR-3 ovarian = system: OVCAR-3 ovarian
OVCAR-4 ovarian = system: OVCAR-4 ovarian
OVCAR-5 ovarian = system: OVCAR-5 ovarian
OVCAR-8 ovarian = system: OVCAR-8 ovarian
PC-3 prostate = system: PC-3 prostate
RPMI-8226 leukemia = system: RPMI-8226 leukemia
RXF 393 renal = system: RXF 393 renal
SF-268 CNS = system: SF-268 CNS
SF-295 CNS = system: SF-295 CNS
SF-539 CNS = system: SF-539 CNS
SK-MEL-5 melanoma = system: SK-MEL-5 melanoma
SK-OV-3 ovarian = system: SK-OV-3 ovarian
SN12C renal = system: SN12C renal
SNB-19 CNS = system: SNB-19 CNS
SNB-75 CNS = system: SNB-75 CNS
SR leukemia = system: SR leukemia
SW-620 colon = system: SW-620 colon
TK-10 renal = system: TK-10 renal
U251 glioblastoma = system: U251 glioblastoma
UO-31 renal = system: UO-31 renal

O=C(Nc1ccncc1)C(=O)c1cn(Cc2ccc(Cl)cc2)c2ccccc12
GI50 ([…]-0 renal): < 10 nM
TGI (786-0 renal): 2010 nM
GI50 (A498 renal): 30.5 nM
TGI (A498 renal): > 100000 nM
GI50 (A549 NSCLC): 1090 nM
TGI (A549 NSCLC): > 100000 nM
GI50 (ACHN renal): < 10 nM
TGI (ACHN renal): > 100000 nM
GI50 (BT-549 breast): < 10 nM
TGI (BT-549 breast): > 100000 nM
GI50 (CAKI-1 renal): < 10 nM
TGI (CAKI-1 renal): > 100000 nM
GI50 (CCRF-CEM leukemia): < 10 nM
TGI (CCRF-CEM leukemia): 16.5 nM
GI50 (COLO 205 colon): 126 nM
TGI (COLO 205 colon): 353 nM
GI50 (DU-145 prostate): 20.8 nM
TGI (DU-145 prostate): > 100000 nM
GI50 (EKVX NSCLC): < 10 nM
TGI (EKVX NSCLC): > 100000 nM
GI50 (HCC-2998 colon): < 10 nM
TGI (HCC-2998 colon): 377 nM
GI50 (HCT-116 colon): < 10 nM
TGI (HCT-116 colon): > 100000 nM
GI50 (HCT-15 colon): < 10 nM
TGI (HCT-15 colon): > 100000 nM
GI50 (HL-60(TB) leukemia): < 10 nM
TGI (HL-60(TB) leukemia): < 10 nM
GI50 (HOP-62 NSCLC): < 10 nM
TGI (HOP-62 NSCLC): 24100 nM
GI50 (HOP-92 NSCLC): 10.4 nM
TGI (HOP-92 NSCLC): 34300 nM
GI50 (HS 578T breast): < 10 nM
TGI (HS 578T breast): < 10 nM
GI50 (HT29 colon): < 10 nM
TGI (HT29 colon): > 100000 nM
GI50 (IGROV1 ovarian): < 10 nM
TGI (IGROV1 ovarian): > 100000 nM
GI50 (K-562 leukemia): < 10 nM
TGI (K-562 leukemia): 11.9 nM
GI50 (KM12 colon): < 10 nM
TGI (KM12 colon): > 100000 nM
GI50 (LOX IMVI melanoma): < 10 nM
TGI (LOX IMVI melanoma): > 100000 nM
GI50 (M14 melanoma): < 10 nM
TGI (M14 melanoma): 36.8 nM
GI50 (MALME-3M melanoma): < 10 nM
TGI (MALME-3M melanoma): 23400 nM
GI50 (MCF7 breast): < 10 nM
TGI (MCF7 breast): > 100000 nM
GI50 (MDA-MB-231 breast): 46.8 nM
TGI (MDA-MB-231 breast): > 100000 nM
GI50 (MDA-MB-435 melanoma): < 10 nM
TGI (MDA-MB-435 melanoma): < 10 nM
GI50 (MDA-MB-468 breast): < 10 nM
TGI (MDA-MB-468 breast): 20.8 nM
GI50 (MOLT-4 leukemia): < 10 nM
TGI (MOLT-4 leukemia): < 10 nM
GI50 (NCI-H226 lung): < 10 nM
TGI (NCI-H226 lung): 787 nM
GI50 (NCI-H23 lung): < 10 nM
TGI (NCI-H23 lung): 67.4 nM
GI50 (NCI-H322M lung): 44.8 nM
TGI (NCI-H322M lung): > 100000 nM
GI50 (NCI-H460 NSCLC): < 10 nM
TGI (NCI-H460 NSCLC): 52.7 nM
GI50 (NCI-H522 lung): < 10 nM
TGI (NCI-H522 lung): < 10 nM
GI50 (NCI/ADR-RES ovarian): < 10 nM
TGI (NCI/ADR-RES ovarian): < 10 nM
GI50 (OVCAR-3 ovarian): < 10 nM
TGI (OVCAR-3 ovarian): < 10 nM
GI50 (OVCAR-4 ovarian): 23 nM
TGI (OVCAR-4 ovarian): > 100000 nM
GI50 (OVCAR-5 ovarian): 894 nM
TGI (OVCAR-5 ovarian): > 100000 nM
GI50 (OVCAR-8 ovarian): < 10 nM
TGI (OVCAR-8 ovarian): 14100 nM
GI50 (PC-3 prostate): < 10 nM
TGI (PC-3 prostate): > 100000 nM
GI50 (RPMI-8226 leukemia): < 10 nM
TGI (RPMI-8226 leukemia): < 10 nM
GI50 (RXF 393 renal): < 10 nM
TGI (RXF 393 renal): < 10 nM
GI50 (SF-268 CNS): < 10 nM
TGI (SF-268 CNS): > 100000 nM
GI50 (SF-295 CNS): < 10 nM
TGI (SF-295 CNS): < 10 nM
GI50 (SF-539 CNS): < 10 nM
TGI (SF-539 CNS): 24.7 nM
GI50 (SK-MEL-5 melanoma): < 10 nM
TGI (SK-MEL-5 melanoma): 11.6 nM
GI50 (SK-OV-3 ovarian): 25 nM
TGI (SK-OV-3 ovarian): > 100000 nM
GI50 (SN12C renal): 17.3 nM
TGI (SN12C renal): > 100000 nM
GI50 (SNB-19 CNS): 13.8 nM
TGI (SNB-19 CNS): > 100000 nM
GI50 (SNB-75 CNS): < 10 nM
TGI (SNB-75 CNS): 3230 nM
GI50 (SR leukemia): < 10 nM
TGI (SR leukemia): < 10 nM
GI50 (SW-620 colon): < 10 nM
TGI (SW-620 colon): > 100000 nM
GI50 (TK-10 renal): < 10 nM
TGI (TK-10 renal): 72200 nM
GI50 (U251 glioblastoma): < 10 nM
TGI (U251 glioblastoma): 1950 nM
GI50 (UO-31 renal): < 10 nM
TGI (UO-31 renal): > 100000 nM
